Source: patent publication US20260207585A1, “METHODS AND COMPOSITIONS FOR THE TREATMENT OF PARKINSON'S DISEASE, HUNTINGTON'S DISEASE, AMYOTROPHIC LATERAL SCLEROSIS, AND LEARNING DISORDERS” (Cedars-Sinai Medical Center, priority 2022, published 2026)
Like-named read-outs stand apart in the source and are kept apart here.

Columns and labels:
[1] = molecular target: DNMT3b/3L (Homo sapiens, UniProt Q9UBC3); test: Methyltransferase inhibition panel: DNMT3b/3L; type: biochemical
Experimental: (§1) The ability of ETP69 to inhibit methyltransferases was tested.

[2] = molecular target: MLL1 Complex (Homo sapiens, UniProt Q03164); test: Methyltransferase inhibition panel: MLL1 Complex; type: biochemical
Experimental: as §1

[3] = molecular target: NSD1 (Homo sapiens, UniProt Q96L73); test: Methyltransferase inhibition panel: NSD1; type: biochemical
Experimental: as §1

[4] = molecular target: T1, NSD2 (Homo sapiens, UniProt O96028); test: Methyltransferase inhibition panel: NSD2; type: biochemical
T1 sequence (O96028 1-1365): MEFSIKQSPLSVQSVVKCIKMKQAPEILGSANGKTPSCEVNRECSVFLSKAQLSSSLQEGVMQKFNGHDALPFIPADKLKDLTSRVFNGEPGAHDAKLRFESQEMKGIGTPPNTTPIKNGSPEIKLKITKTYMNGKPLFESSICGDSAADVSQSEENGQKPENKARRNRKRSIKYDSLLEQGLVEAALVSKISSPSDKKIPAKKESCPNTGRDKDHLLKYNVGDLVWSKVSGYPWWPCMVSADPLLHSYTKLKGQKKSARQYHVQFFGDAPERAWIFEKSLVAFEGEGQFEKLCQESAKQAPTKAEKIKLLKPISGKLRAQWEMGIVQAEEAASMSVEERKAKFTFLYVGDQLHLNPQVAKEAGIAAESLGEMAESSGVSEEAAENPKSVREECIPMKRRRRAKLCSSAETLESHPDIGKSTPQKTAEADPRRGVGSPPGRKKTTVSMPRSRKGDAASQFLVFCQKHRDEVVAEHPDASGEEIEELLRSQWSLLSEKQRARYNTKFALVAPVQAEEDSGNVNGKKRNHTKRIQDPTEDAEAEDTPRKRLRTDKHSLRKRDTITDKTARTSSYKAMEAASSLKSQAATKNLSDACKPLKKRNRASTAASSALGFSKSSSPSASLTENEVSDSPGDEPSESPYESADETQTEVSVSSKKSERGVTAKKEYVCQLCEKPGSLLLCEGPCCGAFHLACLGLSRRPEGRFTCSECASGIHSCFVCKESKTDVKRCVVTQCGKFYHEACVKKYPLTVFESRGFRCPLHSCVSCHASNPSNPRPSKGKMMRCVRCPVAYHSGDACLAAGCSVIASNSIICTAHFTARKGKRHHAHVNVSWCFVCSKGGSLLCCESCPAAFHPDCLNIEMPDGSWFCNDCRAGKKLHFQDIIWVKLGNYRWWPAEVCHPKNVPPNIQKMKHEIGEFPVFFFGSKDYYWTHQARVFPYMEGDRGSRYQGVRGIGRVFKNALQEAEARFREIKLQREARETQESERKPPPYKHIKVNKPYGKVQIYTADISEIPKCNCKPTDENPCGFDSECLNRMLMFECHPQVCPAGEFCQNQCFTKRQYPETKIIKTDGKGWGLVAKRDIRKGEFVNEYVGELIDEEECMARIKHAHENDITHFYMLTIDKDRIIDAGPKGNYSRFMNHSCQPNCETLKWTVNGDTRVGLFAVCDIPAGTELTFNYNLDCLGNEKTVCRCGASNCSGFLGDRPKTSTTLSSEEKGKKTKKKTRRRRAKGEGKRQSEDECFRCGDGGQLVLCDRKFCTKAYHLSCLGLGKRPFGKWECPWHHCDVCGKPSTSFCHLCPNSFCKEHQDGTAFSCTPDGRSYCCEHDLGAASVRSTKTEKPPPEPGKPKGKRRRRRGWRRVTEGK
Experimental: as §1

[5] = molecular target: PRDM9 (Homo sapiens, UniProt Q9NQV7); test: Methyltransferase inhibition panel: PRDM9; type: biochemical
Experimental: as §1

[6] = molecular target: PRMT6 (Homo sapiens, UniProt Q96LA8); test: Methyltransferase inhibition panel: PRMT6; type: biochemical; conditions: NT1721 20 μM, substrate GST-GAR 5 μM
Experimental: as §1

[7] = molecular target: T2, SMYD3 (Homo sapiens, UniProt Q9H7B4); test: Methyltransferase inhibition panel: SMYD3; type: biochemical
T2 sequence (Q9H7B4 1-428): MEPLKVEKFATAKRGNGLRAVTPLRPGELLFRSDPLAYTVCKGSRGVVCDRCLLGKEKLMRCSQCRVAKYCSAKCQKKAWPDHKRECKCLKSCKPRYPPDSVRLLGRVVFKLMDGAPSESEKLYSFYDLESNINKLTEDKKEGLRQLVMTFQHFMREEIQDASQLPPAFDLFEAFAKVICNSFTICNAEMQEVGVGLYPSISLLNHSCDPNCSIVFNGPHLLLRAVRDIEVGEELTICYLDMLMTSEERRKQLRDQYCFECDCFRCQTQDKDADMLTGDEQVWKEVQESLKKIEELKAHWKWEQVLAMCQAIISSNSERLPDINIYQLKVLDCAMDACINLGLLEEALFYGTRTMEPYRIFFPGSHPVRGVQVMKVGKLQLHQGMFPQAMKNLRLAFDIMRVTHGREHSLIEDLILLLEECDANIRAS
Experimental: as §1

[8] = molecular target: SUV420H1TV2 (Homo sapiens, UniProt Q4FZB7); test: Methyltransferase inhibition panel: SUV420H1TV2; type: biochemical
Experimental: as §1

[9] = system: AD+ mice; test: Fear conditioning test; type: in vivo
Experimental: The effects of single and repeated ETP69 injections in mice were tested. The experimental timeline is depicted in FIG. 5. Three parallel injection conditions were tested: a single ETP69 condition, a boosted ETP69 injection, and repeated ETP69 injections. The single injection mice received one injection of ETP69 or DMSO at Day 0. The mice that received a boosted injection received one injection of ETP69 or DMSO at day 0 and one injection at day 9. The mice that received repeated injections received 11 injections of ETP69 or DMSO at day 0 or day 9. Both wildtype and AD model (APP/PS1-transgenic) mice were tested.
The results of the Open Field Barnes Maze test indicate hippocampal-based spatial memory. FIG. 7A depicts a schematic of the Barnes Maze Test. […] The results of the fear conditioning test indicate spatial memory.

[10] = Delivery to the brain; conditions: in vivo
[11] = read-out: Enzyme % Activity (relative to DMSO controls) Data 1
[12] = read-out: Enzyme % Activity (relative to DMSO controls) Data 2
[13] = NT1721 20 μM, substrate Nucleosomes 0.05 mg/mL

Chain of PRDM9 (Q9NQV7 whole entry): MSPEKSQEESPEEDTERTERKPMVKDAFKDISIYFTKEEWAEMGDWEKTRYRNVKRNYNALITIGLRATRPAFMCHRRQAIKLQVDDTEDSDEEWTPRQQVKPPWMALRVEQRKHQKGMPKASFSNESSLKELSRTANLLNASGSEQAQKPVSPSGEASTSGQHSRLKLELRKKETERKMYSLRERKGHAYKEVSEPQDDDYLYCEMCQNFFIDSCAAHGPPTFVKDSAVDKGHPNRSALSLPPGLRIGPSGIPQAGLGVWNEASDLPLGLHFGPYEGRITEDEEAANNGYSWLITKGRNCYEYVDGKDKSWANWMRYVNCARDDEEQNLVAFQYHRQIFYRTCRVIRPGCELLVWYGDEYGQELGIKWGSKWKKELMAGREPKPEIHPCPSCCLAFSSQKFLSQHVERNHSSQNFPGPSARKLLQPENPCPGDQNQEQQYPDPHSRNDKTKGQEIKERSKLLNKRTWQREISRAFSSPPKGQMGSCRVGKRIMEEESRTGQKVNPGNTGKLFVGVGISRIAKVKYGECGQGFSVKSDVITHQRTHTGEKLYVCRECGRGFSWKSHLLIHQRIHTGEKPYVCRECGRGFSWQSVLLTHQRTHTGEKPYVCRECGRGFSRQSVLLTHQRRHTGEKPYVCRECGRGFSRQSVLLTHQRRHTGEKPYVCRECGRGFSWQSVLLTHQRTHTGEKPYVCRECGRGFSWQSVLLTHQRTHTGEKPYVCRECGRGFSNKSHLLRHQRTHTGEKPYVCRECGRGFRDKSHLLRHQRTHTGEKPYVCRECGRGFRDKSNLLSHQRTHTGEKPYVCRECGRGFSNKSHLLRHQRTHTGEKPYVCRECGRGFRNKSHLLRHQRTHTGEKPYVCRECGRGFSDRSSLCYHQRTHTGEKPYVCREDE
Chain of NSD1 (Q96L73 whole entry): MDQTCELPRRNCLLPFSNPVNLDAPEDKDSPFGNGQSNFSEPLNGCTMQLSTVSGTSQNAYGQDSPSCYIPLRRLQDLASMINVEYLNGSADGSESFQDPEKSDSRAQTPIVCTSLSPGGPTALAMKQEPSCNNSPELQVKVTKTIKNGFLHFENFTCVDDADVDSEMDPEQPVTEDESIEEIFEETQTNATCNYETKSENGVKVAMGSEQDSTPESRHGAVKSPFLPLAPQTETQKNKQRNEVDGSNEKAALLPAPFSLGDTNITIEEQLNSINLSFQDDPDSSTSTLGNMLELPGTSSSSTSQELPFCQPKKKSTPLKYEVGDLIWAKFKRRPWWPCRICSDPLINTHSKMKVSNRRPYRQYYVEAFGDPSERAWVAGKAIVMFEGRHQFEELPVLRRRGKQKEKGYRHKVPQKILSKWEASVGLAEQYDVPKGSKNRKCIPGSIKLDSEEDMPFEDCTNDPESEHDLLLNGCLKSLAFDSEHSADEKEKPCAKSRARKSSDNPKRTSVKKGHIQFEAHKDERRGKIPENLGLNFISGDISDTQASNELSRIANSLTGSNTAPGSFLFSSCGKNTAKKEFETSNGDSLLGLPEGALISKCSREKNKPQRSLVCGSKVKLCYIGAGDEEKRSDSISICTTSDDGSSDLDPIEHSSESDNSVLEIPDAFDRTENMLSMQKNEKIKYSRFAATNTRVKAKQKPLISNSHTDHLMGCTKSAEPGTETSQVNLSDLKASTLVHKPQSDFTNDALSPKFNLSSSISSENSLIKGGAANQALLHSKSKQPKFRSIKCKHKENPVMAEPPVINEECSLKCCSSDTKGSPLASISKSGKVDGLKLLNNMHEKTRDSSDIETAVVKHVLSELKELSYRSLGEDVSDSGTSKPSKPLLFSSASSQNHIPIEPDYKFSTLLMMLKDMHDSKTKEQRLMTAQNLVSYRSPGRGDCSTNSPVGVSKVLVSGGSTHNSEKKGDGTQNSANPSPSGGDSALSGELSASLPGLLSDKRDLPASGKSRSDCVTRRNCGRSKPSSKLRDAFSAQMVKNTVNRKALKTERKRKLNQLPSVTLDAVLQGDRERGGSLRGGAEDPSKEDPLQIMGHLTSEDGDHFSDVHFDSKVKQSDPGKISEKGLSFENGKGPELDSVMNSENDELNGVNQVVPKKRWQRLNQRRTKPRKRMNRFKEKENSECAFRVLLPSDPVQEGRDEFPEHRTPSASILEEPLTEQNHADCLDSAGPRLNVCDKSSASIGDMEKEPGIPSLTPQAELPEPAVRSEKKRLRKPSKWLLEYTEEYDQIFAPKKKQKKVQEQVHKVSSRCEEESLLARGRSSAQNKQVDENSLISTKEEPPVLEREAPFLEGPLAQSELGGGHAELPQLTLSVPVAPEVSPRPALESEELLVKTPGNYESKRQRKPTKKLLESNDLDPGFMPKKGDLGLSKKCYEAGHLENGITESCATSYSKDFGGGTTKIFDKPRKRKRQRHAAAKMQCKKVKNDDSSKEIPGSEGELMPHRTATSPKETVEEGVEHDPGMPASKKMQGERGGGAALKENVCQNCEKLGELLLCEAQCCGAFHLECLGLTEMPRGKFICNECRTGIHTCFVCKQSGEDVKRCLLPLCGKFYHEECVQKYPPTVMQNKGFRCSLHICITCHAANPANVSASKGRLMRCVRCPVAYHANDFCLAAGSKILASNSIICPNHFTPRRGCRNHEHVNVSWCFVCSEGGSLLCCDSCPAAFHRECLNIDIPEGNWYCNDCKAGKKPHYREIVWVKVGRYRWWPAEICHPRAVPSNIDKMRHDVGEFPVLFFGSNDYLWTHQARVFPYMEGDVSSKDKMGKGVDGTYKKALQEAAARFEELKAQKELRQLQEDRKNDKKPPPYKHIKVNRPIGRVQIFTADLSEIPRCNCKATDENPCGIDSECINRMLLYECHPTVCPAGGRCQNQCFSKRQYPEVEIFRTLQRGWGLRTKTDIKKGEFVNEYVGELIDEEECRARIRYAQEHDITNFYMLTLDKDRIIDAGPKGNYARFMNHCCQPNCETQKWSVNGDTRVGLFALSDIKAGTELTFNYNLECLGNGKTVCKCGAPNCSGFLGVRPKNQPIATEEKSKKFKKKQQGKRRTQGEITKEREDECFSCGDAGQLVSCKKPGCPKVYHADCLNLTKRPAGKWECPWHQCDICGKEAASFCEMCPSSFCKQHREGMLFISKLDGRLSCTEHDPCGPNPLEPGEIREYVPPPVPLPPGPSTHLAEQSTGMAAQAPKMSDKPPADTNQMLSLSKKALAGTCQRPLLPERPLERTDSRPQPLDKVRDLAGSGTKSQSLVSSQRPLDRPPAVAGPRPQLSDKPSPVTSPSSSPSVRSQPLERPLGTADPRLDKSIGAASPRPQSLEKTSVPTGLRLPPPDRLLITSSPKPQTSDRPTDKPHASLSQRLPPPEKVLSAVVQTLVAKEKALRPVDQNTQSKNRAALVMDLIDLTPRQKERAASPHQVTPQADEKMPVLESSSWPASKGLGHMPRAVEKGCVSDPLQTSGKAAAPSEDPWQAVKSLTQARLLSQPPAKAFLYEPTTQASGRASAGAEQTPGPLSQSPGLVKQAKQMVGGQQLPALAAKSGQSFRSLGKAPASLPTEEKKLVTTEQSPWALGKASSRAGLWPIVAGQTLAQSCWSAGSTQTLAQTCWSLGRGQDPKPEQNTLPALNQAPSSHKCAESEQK
Chain of MLL1 Complex (Q03164 3745-3969): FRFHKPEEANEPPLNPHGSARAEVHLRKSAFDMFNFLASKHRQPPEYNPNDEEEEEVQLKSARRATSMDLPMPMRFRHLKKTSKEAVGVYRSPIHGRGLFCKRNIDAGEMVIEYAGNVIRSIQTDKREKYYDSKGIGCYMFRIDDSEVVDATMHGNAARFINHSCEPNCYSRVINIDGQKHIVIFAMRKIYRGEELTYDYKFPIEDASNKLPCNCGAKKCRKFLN
Chain of MLL1 Complex (Q9UBL3 96-628, further chain): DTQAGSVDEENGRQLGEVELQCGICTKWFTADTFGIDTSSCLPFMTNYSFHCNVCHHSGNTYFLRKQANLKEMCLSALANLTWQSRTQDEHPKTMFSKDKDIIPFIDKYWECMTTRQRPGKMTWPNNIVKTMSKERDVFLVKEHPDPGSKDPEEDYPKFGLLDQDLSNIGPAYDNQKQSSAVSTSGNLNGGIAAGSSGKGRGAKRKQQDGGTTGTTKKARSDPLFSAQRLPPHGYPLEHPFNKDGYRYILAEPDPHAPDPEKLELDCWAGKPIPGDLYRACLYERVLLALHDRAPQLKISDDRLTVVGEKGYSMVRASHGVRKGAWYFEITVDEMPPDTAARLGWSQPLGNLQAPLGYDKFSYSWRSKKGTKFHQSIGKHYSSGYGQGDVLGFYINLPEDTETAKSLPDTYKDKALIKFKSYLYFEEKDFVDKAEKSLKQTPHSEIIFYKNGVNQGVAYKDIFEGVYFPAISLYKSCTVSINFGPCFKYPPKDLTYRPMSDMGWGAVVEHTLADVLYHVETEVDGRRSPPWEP
Chain of MLL1 Complex (Q9C005 whole entry, further chain): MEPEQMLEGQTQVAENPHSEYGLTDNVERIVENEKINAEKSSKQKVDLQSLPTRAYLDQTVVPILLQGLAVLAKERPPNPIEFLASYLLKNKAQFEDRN
Chain of MLL1 Complex (Q15291 whole entry, further chain): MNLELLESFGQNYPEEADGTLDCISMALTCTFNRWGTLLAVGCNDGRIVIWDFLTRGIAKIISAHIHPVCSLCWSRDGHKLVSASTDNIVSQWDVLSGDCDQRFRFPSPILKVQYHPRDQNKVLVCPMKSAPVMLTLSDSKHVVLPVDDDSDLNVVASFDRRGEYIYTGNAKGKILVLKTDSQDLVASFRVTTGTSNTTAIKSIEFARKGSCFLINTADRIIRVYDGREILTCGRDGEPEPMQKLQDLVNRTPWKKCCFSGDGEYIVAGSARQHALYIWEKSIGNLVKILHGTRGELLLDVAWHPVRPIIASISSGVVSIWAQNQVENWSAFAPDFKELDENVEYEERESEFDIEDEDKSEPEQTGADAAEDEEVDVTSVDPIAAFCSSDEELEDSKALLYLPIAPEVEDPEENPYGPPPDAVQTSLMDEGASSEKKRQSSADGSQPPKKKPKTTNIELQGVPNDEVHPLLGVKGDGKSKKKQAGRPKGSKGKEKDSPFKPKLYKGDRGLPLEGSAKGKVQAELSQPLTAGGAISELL

CN1C(=O)[C@@]23C[C@](C)(C#N)[C@H](c4ccc5c(c4)OCO5)N2C(=O)[C@]1(C)SS3 (racemic) [ETP69, Rac-(3S,6S,7S,8aS)-6-(benzo[d][1,3]dioxol-5-yl)-2,3,7-trimethyl-1,4-dioxohexahydro-6H-3,8a-epidithiopyrrolo[1,2-a]pyrazine-7-carbonitrile]
remaining activity at 20 µM [1, 11]: 113%
remaining activity at 20 µM [1, 12]: 111%
Enzyme % Activity (relative to DMSO controls) Data 1 [2, 13]: 5.08%
Enzyme % Activity (relative to DMSO controls) Data 2 [2, 13]: 5.33%
inhibition relative to DMSO controls ([2]; summary of Table 1): at least 7500
Enzyme % Activity (relative to DMSO controls) Data 1 [3, 13]: 34.29%
Enzyme % Activity (relative to DMSO controls) Data 2 [3, 13]: 36.14%
inhibition relative to DMSO controls ([3]; summary of Table 1): at least 7500
remaining activity at 20 µM [4, 11]: 20%
remaining activity at 20 µM [4, 12]: 19.9%
inhibition relative to DMSO controls ([4]; summary of Table 1): at least 7500
remaining activity at 20 µM [5, 11]: 46.2%
remaining activity at 20 µM [5, 12]: 47.1%
inhibition relative to DMSO controls ([5]; summary of Table 1): at least 7500
remaining activity at 20 µM [6, 11]: 128%
remaining activity at 20 µM [6, 12]: 129%
remaining activity at 20 µM [7, 11]: 8.99%
remaining activity at 20 µM [7, 12]: 7.71%
inhibition relative to DMSO controls ([7]; summary of Table 1): at least 7500
remaining activity at 20 µM [8, 11]: 91.5%
remaining activity at 20 µM [8, 12]: 90%
freezing time [9]: increased
delivery to the brain [10]: good delivery to the brain
